Data reported in US10758596B2, “Compositions and methods to prevent and treat biofilms” (ZIOLASE, LLC, priority 2011, dated 2020).
In brackets after ≈: the same amount, converted by molar mass. Like-named read-outs stand apart in the source and are kept apart here.

Experiments:
Type in all cases: cell-based
P. aeruginosa PAO1 [1] = assay: Biofilm mass formation (Crystal Violet staining), P. aeruginosa PAO1 biofilm; details: antibiotic alone 1/4 MIC added to 24 hour preformed biofilm
P. aeruginosa PAO1 [2] = assay: Bacterial cell viability (Resazurin assay), P. aeruginosa PAO1 biofilm
Method: (§1) Various parameters that were evaluated in each part of the analysis include: 1) Biofilm mass formation (% inhibition—by Crystal Violet staining method); 2) Bacterial cell viability (% inhibition—by Resazurin assay); and 3) Bacterial cell growth (by Colony Counting—CFU/ml plating).
The “U” corresponds to the International Units for the enzyme in each testing well. This dose was further used in subsequent experiments. […] In an old stage (72 hour of growth), the biofilm formation was still inhibited by about 50.0%. […]
(§2) The experimental design for the second strain on the preformed biofilm included: • Strain: P. aeruginosa PAO1 • Temperature: 35±2° C. • Incubation Conditions: Static • Time Points: Preformed biofilm for 24 hours, 24 hours of further growth • Treatment: (added to well containing a suspension of P. aeruginosa PAO1 ˜10^7 CFU/ml) • Solvent 1: 50% glycerol containing 1% Triton™ X-100 and 25 mM potassium phosphate, pH 6.5 • Solvent 2: 25 mM potassium phosphate, pH 6.5 • SIGMA Trehalase: 0.092 UI • Dialyzed Trehalase: 0.092 UI • Parameters Assessed: • Biofilm mass formation (staining with crystal violet 0.06%) • Cells viability (incubation with resazurin) • Cell growth by colony counting (CFU/mL)

S. aureus ATCC 25923 [3] = assay: Biofilm mass formation (Crystal Violet staining), S. aureus ATCC 25923 biofilm; details: antibiotic alone 1/4 MIC; 24 hour grown biofilm
Method: as §1
(§3) There now follows greater details about tests that show the effect of Trehalase in gram-positive bacteria (MRSA and MSSA S. aureus). […] It inhibited viability of bacterial cells in the biofilm (about 84%, about 81%, and about 63% correspondingly by Resazurin assay), and reduced the bacterial cell growth in the 24 hour biofilm (about 1.5 log by CFU/ml compared to the Control).
as §2, with “first” for “second”, “early” for “preformed”, “S. aureus ATCC25923” for “P. aeruginosa PAO1”, “Points:” for “Points: Preformed biofilm for 24 hours,”, “hours” for “hours of further growth”, “(CFU/mL) […]” for “(CFU/mL)”

S. aureus ATCC 25923 [4] = assay: Bacterial cell viability (Resazurin assay), S. aureus ATCC 25923
Method: as §1, §3
as §2, with “first” for “second”, “early” for “preformed”, “S. aureus ATCC25923” for “P. aeruginosa PAO1”, “Points:” for “Points: Preformed biofilm for 24 hours,”, “hours” for “hours of further growth”
as §2, with “first” for “second”, “S. aureus ATCC25923” for “P. aeruginosa PAO1”, “(CFU/mL) […]” for “(CFU/mL)”

S. aureus ATCC 25923 [5] = assay: Bacterial cell growth by colony counting (CFU/mL), S. aureus ATCC 25923 biofilm and planktonic cells; details: antibiotic alone 1/4 MIC; 24 hour grown biofilm
Method: as §1, §3
as §2, with “first” for “second”, “early” for “preformed”, “S. aureus ATCC25923” for “P. aeruginosa PAO1”, “Points:” for “Points: Preformed biofilm for 24 hours,”, “hours” for “hours of further growth”, “(CFU/mL) […]” for “(CFU/mL)”

S. aureus ATCC33591 [6] = assay: Biofilm mass formation, S. aureus ATCC33591 24 hour grown biofilm; details: Trehalase 0.092 UI/well, antibiotic 1/4 MIC; early (24 hour grown) biofilm
Method: as §1

S. aureus ATCC 25923 [7] = assay: MIC by CLSI guidelines, S. aureus ATCC 25923
From the text: There is strong reproducibility of the data generated with S. aureus ATCC25923 (similar activity among different experiments).

S. aureus ATCC33591 [8] = assay: MIC, S. aureus ATCC33591
From the text: Neither Gentamicin (GENT), nor Vancomycin (VAN) in sub-MICc doses (¼/MIC) triggered biofilm induction response.

S. aureus 3-Belgium = assay: MIC, S. aureus 3-Belgium
[9] = tested on: S. aureus strains (MSSA Oxford, MSSA ATCC 35556, MRSA ATCC 25923); assay: MIC in broth (CLSI) in the presence and absence of Trehalase, selected S. aureus strains; details: Trehalase 0.092 UI, 24 hours
Method: There was testing of Trehalase on Clinical Isolates (S. aureus strains: Oxford, ATCC35556, and ATCC 25923 as the reference strain) at a time-point: 24 hours of biofilm growth.
The MIC determination with selected S. aureus strains proceeded as a first step. The materials and methods included:
S. aureus strains: Oxford; ATCC35556 and ATCC25923 (as reference strain)
In vitro assay: MIC in broth (according to CLSI guidelines)
Antibiotic concentration: two-fold series dilution from 16 to 0.0078 μg/mL
Incubation: T 37° C.; static condition

[10] = GENT/VAN experiment, Trehalase 0.092 UI/well, antibiotic 1/4 MIC, 24 hour grown biofilm

| Compound | increase of biofilm mass formation (BIR) compared to Control level (P. aeruginosa PAO1 [1]) | increased biofilm mass (biofilm induction response, BIR) compared to Negative Control (S. aureus ATCC 25923 [3]) | inhibition of biofilm cell viability (Resazurin assay) (S. aureus ATCC 25923 [4]; [10]) | effect on cell growth (S. aureus ATCC 25923 [5]) | inhibition / reduction of biofilm mass formation compared to Control (S. aureus ATCC33591 [6]) | MIC (S. aureus ATCC 25923 [7]) [µg/mL] | also measured |
| --- | --- | --- | --- | --- | --- | --- | --- |
| NC[C@H]1O[C@H](O[C@H]2[C@H](O)[C@@H](O[C@H]3O[C@H](CO)[C@@H](O)[C@H](N)[C@H]3O)[C@H](N)C[C@@H]2N)[C@H](N)C[C@@H]1O [Tobramycin] | about 1.4 | – | – | – | – | – | inhibition of cell viability (Resazurin assay) (P. aeruginosa PAO1 [2]; added at beginning, antibiotic 1/4 MIC, 24 hour grown biofilm): about 25%; inhibition of cell viability (Resazurin assay) (P. aeruginosa PAO1 [2]; added at beginning, sub-MIC antibiotic, 48 hour grown biofilm): about 25% |
| Gentamicin | – | two-fold | no effect | no effect | about 10% | 2 | MIC (S. aureus ATCC33591 [8]): 2.0 µg/mL; MIC (S. aureus 3-Belgium): 32.0 µg/mL; MIC value reduction on addition of Trehalase ([9]; clinical isolates): up to 16 fold; MIC value reduction on addition of Trehalase ([9]; reference isolates): ≤ 33 fold |
| CN[C@H](CC(C)C)C(=O)N[C@H]1C(=O)N[C@@H](CC(N)=O)C(=O)N[C@H]2C(=O)N[C@H]3C(=O)N[C@H](C(=O)N[C@H](C(=O)O)c4cc(O)cc(O)c4-c4cc3ccc4O)[C@H](O)c3ccc(c(Cl)c3)Oc3cc2cc(c3O[C@@H]2O[C@H](CO)[C@@H](O)[C@H](O)[C@H]2O[C@H]2C[C@](C)(N)[C@H](O)[C@H](C)O2)Oc2ccc(cc2Cl)[C@H]1O [Vancomycin] | – | 1.8 fold | no effect | no effect | about 20% | 2.0 (≈ 1.38 µM) | MIC (S. aureus ATCC33591 [8]; Staphylococcus aureus, ATCC33591): 2 µg/mL (≈ 1.38 µM); MIC (S. aureus 3-Belgium; Staphylococcus aureus, 3BELGIUM): 2 µg/mL (≈ 1.38 µM); effect of addition of Trehalase on MIC [9]: No significant effect |
| CC(C)(O/N=C(\C(=O)N[C@@H]1C(=O)N2C(C(=O)[O-])=C(C[n+]3ccccc3)CS[C@H]12)c1csc(N)n1)C(=O)O [Ceftazidime] | about 1.6 | – | – | – | – | – | inhibition of cell viability (Resazurin assay) (P. aeruginosa PAO1 [2]; Pseudomonas aeruginosa, 48 h): 25-50%; inhibition of biofilm cell viability (Resazurin assay) (S. aureus ATCC 25923 [4]; Staphylococcus aureus, 24 h): about 13%; MIC (S. aureus ATCC 25923 [7]; Staphylococcus aureus, ATCC25923, read-out: MIC): 8 µg/mL (≈ 14.6 µM) |
